Results from PMC2662629 (Pharmaceutical research, 2008).
Values joined by “and” are separate entries in the source; they are usually repeats but may differ in a detail not shown here. Equal entries are not always repeated. “Also recorded” adds a separate entry of the source. Where two headings read alike, the source gives them in different places. Values belong to the compound of their own block, whether it stands above or below them.

Key:
[1] = molecular target: T1, ABCG2 (Rattus norvegicus, UniProt Q80W57); assay: Bodipy FL prazosin transport assay in isolated rat brain capillaries; assay type: cell-based; settings: for IC50: rat brain capillaries
T1 sequence (Q80W57 1-657): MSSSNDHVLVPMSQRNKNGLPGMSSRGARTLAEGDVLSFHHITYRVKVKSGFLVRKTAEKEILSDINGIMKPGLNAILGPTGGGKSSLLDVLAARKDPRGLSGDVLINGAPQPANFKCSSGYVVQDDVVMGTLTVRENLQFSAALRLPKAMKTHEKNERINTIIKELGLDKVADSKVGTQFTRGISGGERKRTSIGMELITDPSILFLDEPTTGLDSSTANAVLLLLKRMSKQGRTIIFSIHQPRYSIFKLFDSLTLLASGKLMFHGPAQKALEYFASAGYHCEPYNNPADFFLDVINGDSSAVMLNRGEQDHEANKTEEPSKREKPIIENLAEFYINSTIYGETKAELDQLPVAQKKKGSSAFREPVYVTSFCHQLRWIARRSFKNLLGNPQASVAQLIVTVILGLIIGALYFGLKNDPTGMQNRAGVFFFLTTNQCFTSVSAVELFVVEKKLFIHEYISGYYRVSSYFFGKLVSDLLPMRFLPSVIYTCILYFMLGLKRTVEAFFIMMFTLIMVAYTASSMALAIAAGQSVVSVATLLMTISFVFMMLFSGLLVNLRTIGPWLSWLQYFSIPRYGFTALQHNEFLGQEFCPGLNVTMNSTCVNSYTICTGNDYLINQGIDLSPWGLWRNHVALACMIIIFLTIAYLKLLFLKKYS

[2] = system: MCF-7 cells; settings: read-out: IC50 for MCF-7 cells; cited from earlier work
[3] = molecular target: T2, human ABCG2 (Homo sapiens, UniProt Q9UNQ0); assay type: binding
T2 sequence (Q9UNQ0 1-655): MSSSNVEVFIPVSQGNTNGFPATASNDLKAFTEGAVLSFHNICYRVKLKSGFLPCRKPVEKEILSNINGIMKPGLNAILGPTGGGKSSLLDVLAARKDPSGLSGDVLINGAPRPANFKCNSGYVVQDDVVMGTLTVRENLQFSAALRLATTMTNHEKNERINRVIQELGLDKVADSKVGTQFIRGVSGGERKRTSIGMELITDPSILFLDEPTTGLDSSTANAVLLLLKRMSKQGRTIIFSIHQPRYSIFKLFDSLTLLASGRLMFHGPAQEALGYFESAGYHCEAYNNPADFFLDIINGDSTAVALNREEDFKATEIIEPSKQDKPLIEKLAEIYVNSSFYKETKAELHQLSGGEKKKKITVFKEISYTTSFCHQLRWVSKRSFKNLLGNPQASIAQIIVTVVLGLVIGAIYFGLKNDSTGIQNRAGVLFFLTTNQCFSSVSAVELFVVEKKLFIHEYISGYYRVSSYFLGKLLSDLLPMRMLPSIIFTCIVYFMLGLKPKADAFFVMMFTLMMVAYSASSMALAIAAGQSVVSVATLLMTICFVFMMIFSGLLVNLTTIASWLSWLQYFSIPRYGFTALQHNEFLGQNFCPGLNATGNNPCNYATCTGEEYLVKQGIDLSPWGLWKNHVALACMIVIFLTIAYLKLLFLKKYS

[4] = molecular target: T3, mouse ABCG2 (Mus musculus, UniProt Q7TMS5); assay type: in vivo, mice
T3 sequence (Q7TMS5 1-657): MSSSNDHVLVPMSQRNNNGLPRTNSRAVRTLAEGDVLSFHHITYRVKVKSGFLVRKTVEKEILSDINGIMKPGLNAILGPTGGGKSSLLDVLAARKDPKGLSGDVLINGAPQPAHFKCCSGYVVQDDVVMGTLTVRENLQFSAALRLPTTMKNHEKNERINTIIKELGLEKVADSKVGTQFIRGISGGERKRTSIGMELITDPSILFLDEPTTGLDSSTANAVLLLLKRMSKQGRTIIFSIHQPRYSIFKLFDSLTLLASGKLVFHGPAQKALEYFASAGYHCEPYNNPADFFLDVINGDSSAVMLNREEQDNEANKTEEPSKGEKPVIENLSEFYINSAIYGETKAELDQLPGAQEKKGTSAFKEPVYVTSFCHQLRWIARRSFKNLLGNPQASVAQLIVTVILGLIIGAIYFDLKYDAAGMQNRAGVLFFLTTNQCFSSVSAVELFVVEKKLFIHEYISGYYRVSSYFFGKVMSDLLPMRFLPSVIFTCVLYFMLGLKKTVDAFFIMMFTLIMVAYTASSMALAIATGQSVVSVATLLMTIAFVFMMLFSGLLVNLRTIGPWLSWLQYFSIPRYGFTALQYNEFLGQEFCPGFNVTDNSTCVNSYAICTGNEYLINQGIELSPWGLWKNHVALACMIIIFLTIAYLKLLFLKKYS

[5] = system: mouse ABCG2; assay type: in vivo, mice; settings: FVB, mouse, plasma, oral, 20 mg/kg
[6] = system: mouse ABCG2; assay type: in vivo, mice
[7] = clinical trials in humans; cited from earlier work
[8] = system: pancreatic cancer; settings: oral administration of 8 g curcumin daily up to 18 months; cited from earlier work

Compound: COc1ccc2c3c([nH]c2c1)[C@H](C=C(C)C)N1C(=O)[C@@H]2CCCN2C(=O)[C@@H]1C3 [FTC, fumitremorgin C]
inhibition of the efflux of Bodipy-prazosin in brain capillaries [1]: 50%
luminal BODIPY FL prazosin fluorescence, % of control capillaries ([1]; 5 μM inhibitor, steady state): approximately 50%

Compound: COc1cc2c(cc1OC)CN(CCc1ccc(NC(=O)c3cccc4c(=O)c5cccc(OC)c5[nH]c34)cc1)CC2 [GF120918]
IC50 [2]: 18000 nM

Compound: COc1ccc2c3c([nH]c2c1)[C@H](CC(C)C)N1C(=O)[C@H](CCC(=O)OC(C)(C)C)NC(=O)[C@@H]1C3 [Ko143]
IC50 [2]: 19000 nM

IC50 [3]: 1020 nM
half-life ([4]; FVB, mouse, plasma, po): 5.02 h
half-life ([4]; FVB, mouse, plasma, po, 20 mg/kg): 1.08 h
Cmax ([4]; FVB, mouse, plasma, po, 20 mg/kg, Cmax of SASP, SASP 20 mg/kg PO, vehicle pretreatment, wild-type mice): 1230 ng/mL
concentration at 24 h [5]: < 1 ng/mL
SASP plasma level in abcg2-/- mice relative to abcb1a-/- and wild-type groups ([6]; 90 min after SASP 20 mg/kg PO): 10-20 fold
concentration at 90 min ([6]; FVB, mouse, plasma, oral, 20 mg/kg): ~540 ng/mL and 12400 ng/mL
Compound: O=C(O)c1cc(/N=N/c2ccc(S(=O)(=O)Nc3ccccn3)cc2)ccc1O [SASP, Sulfasalazine]

IC50 ([1]; IC50, inhibition of ABCG2-mediated efflux of BODIPY FL prazosin, ex vivo): 19 nM
IC50 ([1]; IC50, inhibition of ABCG2 activity (luminal BODIPY FL prazosin fluorescence), 2 μM BODIPY FL prazosin, 1 h, room temperature): 19.4 nM
effect of curcumin pretreatment on plasma concentration of SASP ([4]; curcumin 40 mg/kg PO 1 h before SASP 20 mg/kg PO, FVB-WT mice, data not shown): no effect
Compound: COc1cc(/C=C/C(=O)CC(=O)/C=C/c2ccc(O)c(OC)c2)ccc1O [curcumin, Diferuoyl methane]
effect of curcumin on the levels of SASP ([6]; abcg2-/- mice, curcumin 400 mg/kg PO, 90 min after SASP 20 mg/kg PO): no significant effect; also recorded: no significant increase
systemic bioavailability of orally administered curcumin [7]: relatively low
progression of pancreatic cancer [8]: inhibited progression
